How the values were obtained:
[1] = tested on: blackgrass; experiment: Test Example 5: herbicidal effect by foliage application, plastic box (Table 20, symbol J); type: in vivo, blackgrass (Alopecurus myosuroides); settings: foliage application, AAH 320 g/ha, evaluated three weeks after application
In short: (§1)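 Sow seeds spot-wise in sterilized diluvial soil; cover with ~1.5 cm soil. Grow 14 days in greenhouse, 25° C. to 30° C. Spray foliage with emulsion diluted to predetermined amount. Rate effect after 3 weeks.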

[2] = tested on: barnyard grass; experiment: Test Example 5: herbicidal effect by foliage application, plastic box (Table 20, symbol H); type: in vivo, barnyard grass (Echinochloa crus-galli); settings: foliage application
In short: as §1

[3] = tested on: persian speedwell; experiment: Test Example 5: herbicidal effect by foliage application, plastic box (Table 20, symbol R); type: in vivo, Persian speedwell (Veronica persica); settings: foliage application, AAH 320 g/ha, evaluated three weeks after application
In short: as §1

[4] = tested on: Italian ryegrass; experiment: Test Example 5: herbicidal effect by foliage application, plastic box (Table 20, symbol K); type: in vivo, Italian ryegrass (Lolium multiflorum); settings: foliage application, AAH 320 g/ha, evaluated three weeks after application
In short: as §1

[5] = tested on: green foxtail; experiment: Test Example 5: herbicidal effect by foliage application, plastic box (Table 20, symbol G); type: in vivo, green foxtail (Setaria viridis); settings: foliage application
In short: as §1

[6] = tested on: Japanese bulrush; experiment: Test Example 1: herbicidal activity, application before weed generation under submerged conditions (Table 16, symbol B); type: in vivo, Japanese bulrush (Schoenoplectus juncoides)
In short: (§2)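 Alluvial soil was flooded to 4 cm depth, weed seeds were sown mixed and 2.5-leaf rice seedlings were transplanted. On sowing day, the compound's emulsion, diluted in water to a set dose, was applied to the water surface. Plants grew at 25–30 °C and were scored 0–5 after three weeks.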

[7] = tested on: oval-leafed pondweed; experiment: Test Example 1: herbicidal activity, application before weed generation under submerged conditions (Table 16, symbol C); type: in vivo, oval-leafed pondweed (Monochoria vaginalis)
Source text: [Test Example 1] Herbicidal Activity Test by Application before Weed Generation under Submerged Conditions After alluvial soil was placed into 1/10000 are of Wagner pot, water was poured and mixed to form a submerged condition having a water depth of 4 cm. Seeds of late watergrass, Japanese bulrush, and oval-leafed pondweed were sowed in a mixed manner in the aforementioned pot, and then 2.5 leaf stage rice plant seedlings were transplanted thereto. On the day of sowing seeds, the emulsion agent of the compound of the present invention prepared according to Formulation Example 2 was diluted with water so as to achieve a predetermined herbicide amount, and the diluted emulsion agent was applied to the surface of the water. The pot was placed in a greenhouse at 25° C. to 30° C. for growth of the plants. Three weeks after the herbicide application, the effect of the herbicide on each plant was evaluated according to the following criteria. Evaluation Criteria 5: Herbicidal rate of 90% or more (almost completely withered) 4: Herbicidal rate of 70% or more and less than 90% 3: Herbicidal rate of 40% or more and less than 70% 2: Herbicidal rate of 20% or more and less than 40% 1: Herbicidal rate of 5% or more and less than 20% 0: Herbicidal rate of 5% or less (almost no effect)

[8] = tested on: barnyard grass; experiment: Test Example 3: herbicidal effect by foliage application, Wagner pot (Table 18, symbol H); type: in vivo, barnyard grass (Echinochloa crus-galli); settings: amount of applied herbicide 320 g/ha
In short: (§3)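 Plants were sown in alluvial soil held under 0.1–0.5 cm standing water and grown 14 days in a greenhouse at 25–30 °C. An emulsifiable formulation, water-diluted to the set dose, was then sprayed onto the foliage, and effects were scored three weeks later using previously defined criteria.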

[9] = tested on: lambsquarters; experiment: Test Example 5: herbicidal effect by foliage application, plastic box (Table 20, symbol O); type: in vivo, lambsquarters (Chenopodium album); settings: foliage application
In short: as §1

[10] = tested on: velvetleaf; experiment: Test Example 5: herbicidal effect by foliage application, plastic box (Table 20, symbol M); type: in vivo, velvetleaf (Abutilon theophrasti); settings: foliage application
In short: as §1

[11] = tested on: windgrass; experiment: Test Example 5: herbicidal effect by foliage application, plastic box (Table 20, symbol L); type: in vivo, windgrass (Apera spica-venti); settings: foliage application, AAH 320 g/ha, evaluated three weeks after application
In short: as §1

[12] = tested on: wild oat; experiment: Test Example 5: herbicidal effect by foliage application, plastic box (Table 20, symbol I); type: in vivo, wild oat (Avena fatua); settings: foliage application, AAH 320 g/ha, evaluated three weeks after application
In short: as §1

[13] = tested on: Chinese sprangletop; experiment: Test Example 3: herbicidal effect by foliage application, Wagner pot (Table 18, symbol D); type: in vivo, chinese sprangletop (Leptochloa chinensis); settings: amount of applied herbicide 320 g/ha
In short: as §3

[14] = tested on: redroot pigweed; experiment: Test Example 5: herbicidal effect by foliage application, plastic box (Table 20, symbol N); type: in vivo, redroot pigweed (Amaranthus retroflexus); settings: foliage application
In short: as §1

[15] = tested on: southern crabgrass; experiment: Test Example 5: herbicidal effect by foliage application, plastic box (Table 20, symbol F); type: in vivo, southern crabgrass (Digitaria ciliaris); settings: foliage application
In short: as §1

[16] = tested on: rice flat sedge; experiment: Test Example 3: herbicidal effect by foliage application, Wagner pot (Table 18, symbol E); type: in vivo, rice flat sedge (Cyperus iria); settings: amount of applied herbicide 320 g/ha
In short: as §3

[17] = tested on: late watergrass; experiment: Test Example 1: herbicidal activity, application before weed generation under submerged conditions (Table 16, symbol A); type: in vivo, late watergrass (Echinochloa oryzicola)
In short: as §2

[18] = tested on: redroot pigweed; experiment: Test Example 4: herbicidal effect by soil treatment (Table 19, symbol N); type: in vivo, redroot pigweed (Amaranthus retroflexus); settings: amount of applied herbicide 320 g/ha
In short: (§4)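 Soil-surface application: an emulsion agent diluted with water to the predetermined dose is sprayed uniformly over seeds lying under roughly 1.5 cm of sterilized diluvial soil. Boxes stay in a greenhouse at 25° C. to 30° C. Three weeks later, each species is graded on previously defined criteria.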

[19] = tested on: lambsquarters; experiment: Test Example 4: herbicidal effect by soil treatment (Table 19, symbol O); type: in vivo, lambsquarters (Chenopodium album); settings: amount of applied herbicide 320 g/ha
In short: as §4

[20] = tested on: velvetleaf; experiment: Test Example 4: herbicidal effect by soil treatment (Table 19, symbol M); type: in vivo, velvetleaf (Abutilon theophrasti); settings: amount of applied herbicide 320 g/ha
In short: as §4

[21] = tested on: barnyard grass; experiment: Test Example 4: herbicidal effect by soil treatment (Table 19, symbol H); type: in vivo, barnyard grass (Echinochloa crus-galli); settings: amount of applied herbicide 320 g/ha
In short: as §4

[22] = tested on: southern crabgrass; experiment: Test Example 4: herbicidal effect by soil treatment (Table 19, symbol F); type: in vivo, southern crabgrass (Digitaria ciliaris); settings: amount of applied herbicide 320 g/ha
In short: as §4

[23] = tested on: green foxtail; experiment: Test Example 4: herbicidal effect by soil treatment (Table 19, symbol G); type: in vivo, green foxtail (Setaria viridis); settings: amount of applied herbicide 320 g/ha
In short: as §4

[24] = AAH 320 g/ha, evaluated three weeks after application
[25] = 320 g/ha, three weeks after application
[26] = amount of applied herbicide 320 g/ha

## CCCC(=O)Oc1c(C)nn(C)c(=O)c1-c1c(-c2ccc(Cl)cc2Cl)sc2ccc(F)cc12 [2-347]
[1]
  J: blackgrass, herbicidal effect (criteria 0-5): 0 (Herbicidal rate of 5% or less (almost no effect))
[2]; [24]
  H: barnyard grass, herbicidal effect (criteria 0-5): 0 (Herbicidal rate of 5% or less (almost no effect))
[3]
  R: persian speedwell, herbicidal effect (criteria 0-5): 4 (Herbicidal rate of 70% or more and less than 90%)
[4]
  K: Italian ryegrass, herbicidal effect (criteria 0-5): 0 (Herbicidal rate of 5% or less (almost no effect))
[5]; [24]
  G: green foxtail, herbicidal effect (criteria 0-5): 0 (Herbicidal rate of 5% or less (almost no effect))
[6]; 320 g/ha applied herbicide
  Herbicidal effect on B: Japanese bulrush (grade 0-5): 0 (Herbicidal rate of 5% or less (almost no effect))
[7]; 320 g/ha applied herbicide
  Herbicidal effect on C: oval-leafed pondweed (grade 0-5): 0 (Herbicidal rate of 5% or less (almost no effect))
[8]
  herbicidal effect on H: barnyard grass: 4 (Herbicidal rate of 70% or more and less than 90%)
[9]; [24]
  O: lambsquarters, herbicidal effect (criteria 0-5): 3 (Herbicidal rate of 40% or more and less than 70%)
[10]; [24]
  M: velvetleaf, herbicidal effect (criteria 0-5): 0 (Herbicidal rate of 5% or less (almost no effect))
[11]
  L: windgrass, herbicidal effect (criteria 0-5): 3 (Herbicidal rate of 40% or more and less than 70%)
[12]
  I: wild oat, herbicidal effect (criteria 0-5): 3 (Herbicidal rate of 40% or more and less than 70%)
[13]
  herbicidal effect on D: Chinese sprangletop: 4 (Herbicidal rate of 70% or more and less than 90%)
[14]; [24]
  N: redroot pigweed, herbicidal effect (criteria 0-5): 0 (Herbicidal rate of 5% or less (almost no effect))
[15]; [24]
  F: southern crabgrass, herbicidal effect (criteria 0-5): 0 (Herbicidal rate of 5% or less (almost no effect))
[16]
  herbicidal effect on E: rice flat sedge: 4 (Herbicidal rate of 70% or more and less than 90%)
[17]; 320 g/ha applied herbicide
  Herbicidal effect on A: late watergrass (grade 0-5): 3 (Herbicidal rate of 40% or more and less than 70%)

## Cc1nn(C)c(=O)c(-c2c(-c3ccc(OCC[S+](C)[O-])cc3)sc3ccc(F)cc23)c1O (centres unmarked) [2-443]
[2]; [25]
  H: barnyard grass, herbicidal effect grade: 5 (Herbicidal rate of 90% or more (almost completely withered))
[18]
  herbicidal effect, N: redroot pigweed: 5 (Herbicidal rate of 90% or more (almost completely withered))
[5]; [25]
  G: green foxtail, herbicidal effect grade: 5 (Herbicidal rate of 90% or more (almost completely withered))
[6]; [26]
  Herbicidal effect, B: Japanese bulrush: 0 (Herbicidal rate of 5% or less (almost no effect))
[7]; [26]
  Herbicidal effect, C: oval-leafed pondweed: 0 (Herbicidal rate of 5% or less (almost no effect))
[8]
  herbicidal effect on H: barnyard grass: 5 (Herbicidal rate of 90% or more (almost completely withered))
[19]
  herbicidal effect, O: lambsquarters: 4 (Herbicidal rate of 70% or more and less than 90%)
[20]
  herbicidal effect, M: velvetleaf: 3 (Herbicidal rate of 40% or more and less than 70%)
[21]
  herbicidal effect, H: barnyard grass: 5 (Herbicidal rate of 90% or more (almost completely withered))
[9]; [25]
  O: lambsquarters, herbicidal effect grade: 5 (Herbicidal rate of 90% or more (almost completely withered))
[10]; [25]
  M: velvetleaf, herbicidal effect grade: 5 (Herbicidal rate of 90% or more (almost completely withered))
[13]
  herbicidal effect on D: Chinese sprangletop: 4 (Herbicidal rate of 70% or more and less than 90%)
[14]; [25]
  N: redroot pigweed, herbicidal effect grade: 5 (Herbicidal rate of 90% or more (almost completely withered))
[15]; [25]
  F: southern crabgrass, herbicidal effect grade: 5 (Herbicidal rate of 90% or more (almost completely withered))
[16]
  herbicidal effect on E: rice flat sedge: 5 (Herbicidal rate of 90% or more (almost completely withered))
[22]
  herbicidal effect, F: southern crabgrass: 5 (Herbicidal rate of 90% or more (almost completely withered))
[17]; [26]
  Herbicidal effect, A: late watergrass: 3 (Herbicidal rate of 40% or more and less than 70%)
[23]
  herbicidal effect, G: green foxtail: 5 (Herbicidal rate of 90% or more (almost completely withered))

Reference: patent publication US20230085307A1, “PYRIDAZINONE COMPOUND AND HERBICIDE” (NISSAN CHEMICAL CORPORATION, priority 2019, published 2023)
